# In patent US9695481B2, “Polynucleotides comprising a reporter sequence operatively linked to a regulatory element” (UNIVERSITEIT LEIDEN, priority 2010, dated 2017):
# Entries after “also recorded” stand apart in the source; their conditions may differ. Structures can show the parent of a compound that is named as a salt. Where two headings read alike, the source gives them in different places.
# Key:
# [1] = system: Bscl2-GFP mES reporter cells; test: Bscl2-GFP genotoxicity reporter; settings: for Bscl2-GFP reporter induction: 24 h exposure; for effect on Bscl2-GFP reporter activation by CisPt or Aph: 10 uM CisPt or 1.5 uM Aph, 24 h
# [2] = system: Srxn1-GFP mES reporter cells; test: Srxn1-GFP oxidative stress reporter; settings: for Srxn1-GFP reporter induction: 24 h exposure, flow cytometry
# [3] = system: mouse ES cell lines containing a DsRed fluorescent reporter; settings: cited from earlier work
# [4] = system: Bscl2-GFP and Srxn1-GFP mES reporter cells
# [5] = system: Salmonella; settings: cited from earlier work
# [6] = Genotoxicity profile; data extracted from Kirkland et al. 2008; cited from earlier work
# [7] = cited from earlier work
# [8] = system: mouse ES cell lines containing a DsRed fluorescent reporter
# [9] = system: Bscl2-GFP mES reporter cells
# [10] = system: Srxn1-GFP mES reporter cells
# [11] = system: ATM and ATR signaling pathways (phospho-Kap1, phospho-Chk1, phospho-p53); assay type: cell-based, mouse; settings: Western blot, 24 h
# Experimental: Mouse ES cells were propagated on irradiated primary mouse embryonic fibroblasts as feeders according to established protocols. […] For analysis of compounds that require metabolic activation, cells were exposed for 3 h in the presence of 1% S9 rat liver extract in 3.2 mM KCl, 0.8 mM MgCl2, 0.5 mM glucose-6-phosphate and 0.4 mM NADP.
# Activation of the ATM and ATR signaling pathways in response to CisPt and Aph was determined by Western blot analysis. […] Proteins were transferred to PVDF membrane (Millipore) and detected using antibodies against phospho-Kap1 (Bethyl laboratories), phospho-Chk1 (Bethyl laboratories), phospho-p53 (Cell signaling) or Hprt (Santa Cruz) as protein loading control. Proteins were visualized using enhanced chemoluminescence (ECL).
# [12] = from which GFP reporter is induced
# [13] = Genotoxicity profile, data extracted from Kirkland et al. 2008
compound,measurement,setting,value
"C[C@@]1(CO)[C@H](O)CC[C@@]2(C)[C@H]1CC[C@H]1C[C@@H]3C[C@@]12CC[C@]3(O)CO [Aph, aphidicolin]",Bscl2-GFP reporter induction,[1]; flow cytometry,significant induction of GFP expression
same,Srxn1-GFP reporter induction,[2],slight reporter activation; also recorded: slightly activated
[Cl][Cd][Cl] [Cadmium Chloride],mES DsRed reporters,[3]; Hendriks et al. 2011,Pos.
same,Bscl2-GFP/Srxn1-GFP GFP Induction,[4],Pos. (considered positive when exposure to at least two different concentrations of a compound resulted in >1.5 fold induction of GFP expression)
same,Bscl2-GFP/Srxn1-GFP Prim. toxic properties,[4]; [12],Pro-oxidant
same,Ames test,[5],Pos.
same,In vitro genotoxicity,[6],Pos.
same,In vivo genotoxicity,[7]; [13],Pos.
same,Srxn1-GFP reporter induction,[2],Specific activation; also recorded: highly responsive
same,Srxn1-GFP reporter induction,[2]; listed as CdCl2,"strong, concentration-dependent increase in expression of the GFP reporter"
N.N.[Cl][Pt][Cl] [Cisplatin],mES DsRed reporters,[3]; Hendriks et al. 2011,Pos.
same,DsRed reporter expression/activation,[8],clear induction of DsRed expression
same,mRNA expression of Ephx1-DsRed reporter and endogenous Ephx1 gene,"[8]; quantitative RT-PCR, up to 24 h",transcriptionally activated
same,Bscl2-GFP/Srxn1-GFP GFP Induction,[4],Pos. (considered positive when exposure to at least two different concentrations of a compound resulted in >1.5 fold induction of GFP expression)
same,"GFP expression in Srxn1, Bscl2 and Btg2 GFP reporter cell lines","[4]; BAC TransgeneOmics lines, 30 hrs exposure, flow cytometry",increased
same,time at which Bscl2-GFP expression became visible,"[1]; 5 uM CisPt, live cell imaging",12 h
same,"Srxn1-GFP reporter induction, live cell imaging","[2]; 5 uM CisPt or 100 uM DEM, up to 24 h",hardly responsive
same,Srxn1-GFP reporter induction,[2]; listed as CisPt,"also induced by the genotoxic compounds, albeit to a lesser extent; also recorded: slightly activated"
same,Srxn1-GFP reporter induction (mRNA),"[2]; quantitative RT-PCR, 8 or 16 h",somewhat responsive
O=S(=O)([O-])[O-].[Cu+2] [Copper sulfate],Bscl2-GFP reporter induction,[9],not induced
same,Bscl2-GFP/Srxn1-GFP GFP Induction,[4],Pos. (key: Pos.: considered positive when exposure to at least two different concentrations of a compound resulted in >1.5 fold induction of GFP expression)
same,Bscl2-GFP/Srxn1-GFP Prim. toxic properties,[4],Pro-oxidant
same,"GFP expression in Srxn1, Bscl2 and Btg2 GFP reporter cell lines",[4],increased
same,Srxn1-GFP reporter induction,[10],"strong, concentration-dependent increase in expression of the GFP reporter"
CCOC(=O)/C=C\C(=O)OCC [Diethyl maleate],mES DsRed reporters,[3]; Hendriks et al. 2011,Pos.
same,DsRed reporter expression/activation,[8],clear induction of DsRed expression
same,Bscl2-GFP/Srxn1-GFP Prim. toxic properties,[4],Pro-oxidant
same,"GFP expression in Srxn1, Bscl2 and Btg2 GFP reporter cell lines",[4],increased
same,Srxn1-GFP reporter induction (mRNA),[10],highly induced
same,exposure time after which Srxn1-GFP expression reached a plateau,"[2]; 100 uM DEM, live cell imaging",24 h
same,exposure time after which Srxn1-GFP expression was clearly detectable,"[2]; 100 uM DEM, live cell imaging",8 h
COc1cccc2c1C(=O)c1c(O)c3c(c(O)c1C2=O)C[C@@](O)(C(=O)CO)C[C@@H]3O[C@H]1C[C@H](N)[C@H](O)[C@H](C)O1 [Doxorubicin],mES DsRed reporters,[3]; Hendriks et al. 2011,Pos.
same,Bscl2-GFP/Srxn1-GFP Prim. toxic properties,[4],Genotoxin
same,"GFP expression in Srxn1, Bscl2 and Btg2 GFP reporter cell lines",[4],increased
same,Ames test,[5]; [13],Pos.
same,In vitro genotoxicity,[6],Pos.
same,Srxn1-GFP reporter induction,[10],"also induced by the genotoxic compounds, albeit to a lesser extent"
same,In vivo genotoxicity,[7]; [13],Pos.
COc1cc([C@@H]2c3cc4c(cc3[C@@H](O[C@@H]3O[C@@H]5CO[C@@H](C)O[C@H]5[C@H](O)[C@H]3O)[C@H]3COC(=O)[C@H]23)OCO4)cc(OC)c1O [Etoposide],Bscl2-GFP/Srxn1-GFP Prim. toxic properties,[4],Genotoxin
same,In vitro genotoxicity,[6],Pos.
same,Srxn1-GFP reporter induction,[10],"also induced by the genotoxic compounds, albeit to a lesser extent"
same,In vivo genotoxicity,[7]; [13],Pos.
"NC(=O)NO [HU, Hydroxyurea]",Bscl2-GFP reporter induction,[9],significant induction of GFP expression
same,Srxn1-GFP reporter induction,[10],slight reporter activation
"COS(C)(=O)=O [MMS, methyl methanesulphonate]",mES DsRed reporters,[3],Pos.
same,DsRed reporter expression/activation,[8],clear induction of DsRed expression
same,Bscl2-GFP/Srxn1-GFP GFP Induction,[4],Pos. (considered positive when exposure to at least two different concentrations of a compound resulted in >1.5 fold induction of GFP expression)
same,Bscl2-GFP/Srxn1-GFP Prim. toxic properties,[4]; [12],Pro-oxidant
same,Ames test,[5]; [13],Pos.
same,In vivo genotoxicity,[7]; in vivo,Pos.
O=[As]O [Sodium arsenite],mES DsRed reporters,[3]; Hendriks et al. 2011,Pos.
same,Bscl2-GFP/Srxn1-GFP GFP Induction,[4],Pos. (considered positive when exposure to at least two different concentrations of a compound resulted in >1.5 fold induction of GFP expression)
same,Bscl2-GFP/Srxn1-GFP Prim. toxic properties,[4]; [12],Pro-oxidant
same,Ames test,[5]; [13],Neg.
same,In vitro genotoxicity,[6],Pos.
same,Bscl2-GFP reporter induction,[1]; flow cytometry,hardly responded
same,Bscl2-GFP reporter induction,"[1]; flow cytometry, listed as NaAsO2",not induced
same,In vivo genotoxicity,[7]; [13],Pos.
same,Srxn1-GFP reporter induction,[2],Specific activation; also recorded: highly responsive
same,Srxn1-GFP reporter induction,[2]; listed as NaAsO2,"strong, concentration-dependent increase in expression of the GFP reporter; also recorded: preferentially induced"
CN[C@@H]1C[C@H]2O[C@@](C)([C@@H]1OC)n1c3ccccc3c3c4c(c5c6ccccc6n2c5c31)C(=O)N[C@@H]4O [UCN-01],effect on Bscl2-GFP reporter activation by CisPt or Aph,[1]; flow cytometry,almost completely be repressed
"Cc1cccc(Nc2cc(Cl)nc(SCC(=O)O)n2)c1C [Wyeth-14,643]",DsRed reporter expression/activation,[8],did not induce any reporter activation
O=P1(N(CCCl)CCCl)NCCCO1 (stereo not shown) [cyclophosphamide],survival of Bscl2-GFP reporter cells after S9-dependent activation,[9],reduced survival
same,Bscl2-GFP reporter induction with metabolic activation,[9]; mouse,induced expression of the Bscl2-GFP reporter only when incubated in the presence of rat S9 mix
CC/C(=C(/CC)c1ccc(O)cc1)c1ccc(O)cc1 [diethylstilbestrol],DsRed reporter expression/activation,[8],did not induce any reporter activation
Cc1c2ccccc2c(C)c2c1ccc1ccccc12 [dimethylbenz(a)antracene],Bscl2-GFP reporter induction with metabolic activation,"[1]; 3 h with/without S9 rat liver extract, GFP after 24 h, flow cytometry",induced expression of the Bscl2-GFP reporter only when incubated in the presence of rat S9 mix
same,survival of Bscl2-GFP reporter cells after S9-dependent activation,"[1]; fraction of intact cells, flow cytometry",reduced survival
O=c1cc(-c2cccc3c2Sc2ccccc2S3)oc(N2CCOCC2)c1 [ku55933],"effect on phosphorylation of Kap1, Chk1 and p53 in response to CisPt and Aph",[11],prevented phosphorylation of Kap1 and p53
same,effect on Bscl2-GFP reporter activation by CisPt or Aph,[1]; flow cytometry,unaffected
COc1cc2c(c(OC)c1OC)-c1c(cc3c(c1OC)OCO3)CC(C)C(C)C2 (stereo not shown) [schisandrin B],"effect on phosphorylation of Kap1, Chk1 and p53 in response to CisPt and Aph",[11],diminished Chk1 and p53 phosphorylation
same,effect on Bscl2-GFP reporter activation by CisPt or Aph,[1]; flow cytometry,almost completely be repressed
Mitomycin C,Bscl2-GFP/Srxn1-GFP GFP Induction,[4],Pos. (key: Pos.: considered positive when exposure to at least two different concentrations of a compound resulted in >1.5 fold induction of GFP expression)
same,Bscl2-GFP/Srxn1-GFP Prim. toxic properties,[4],Genotoxin
same,"GFP expression in Srxn1, Bscl2 and Btg2 GFP reporter cell lines",[4],increased
same,Srxn1-GFP reporter induction,[10],"also induced by the genotoxic compounds, albeit to a lesser extent"
aflatoxin B1,Bscl2-GFP reporter induction with metabolic activation,[1],induced expression of the Bscl2-GFP reporter only when incubated in the presence of rat S9 mix
